Reference: patent US5464855A, “Thiophene-2-carboxamidotetrazoles and pharmaceutical use thereof” (Warner-Lambert Company, priority 1994, dated 1995)

Target: T1, Mac-1 (Homo sapiens, UniProt P05107+P11215)
T1 construct: isolate neutrophils from ethylenediaminetetraacetic acid (EDTA)-treated venous blood obtained from healthy human volunteers; endogenous in cells; host or cells: human neutrophils (PMN) isolated from venous blood of healthy volunteers
Assay: Human neutrophil Mac-1 adhesion assay (fMLP-stimulated PMN adhesion to KLH-coated plates)
Type: cell-based
Conditions: human neutrophils, read-out: percent drug inhibition vs. stimulus control
Experimental: Protocol for Human Neutrophil Mac-1 Adhesion Assay
Namely, we utilized Ferrante and Thong's methodology to isolate neutrophils from ethylenediaminetetraacetic acid (EDTA)-treated venous blood obtained from healthy human volunteers. Keyhole limpet hemocyanin (KLH) coated microtiter plates were prepared as follows:
All pipetting was automated using the Cetus Pro/Pette (Perkin-Elmer; division of Applied Biosystems, Foster, Calif.). KLH, Megathura crenulata; Calbiochem-Novabiochem, La Jolla, Calif., was prepared at a concentration of 0.5 mg/mL in Dulbecco's PBS phosphate buffered saline (PBS) with Ca^++, pH 7.2 (DPBS).
Microtiter plates are prewashed with 50% EtOH for 1 hour at 37° C., then drained and blotted to dryness. Then 0.3 mL KLH solution was pipetted into each well of the 96 well microtiter plate, covered and incubated overnight at 37° C. […]
a. mean unstimulated cell control OD is determined and subtracted from all other values b. mean net stimulated, e.g., FMLP, control values are determined c. mean drug values are determined and percent drug inhibition vs. stimulus control are calculated as follows: [formula] d. IC50 determinations, plotting logdose vs. percent inhibition, are determined by linear regression analysis using the least squares method.

T1 sequence (P05107 23-769, other chains not shown): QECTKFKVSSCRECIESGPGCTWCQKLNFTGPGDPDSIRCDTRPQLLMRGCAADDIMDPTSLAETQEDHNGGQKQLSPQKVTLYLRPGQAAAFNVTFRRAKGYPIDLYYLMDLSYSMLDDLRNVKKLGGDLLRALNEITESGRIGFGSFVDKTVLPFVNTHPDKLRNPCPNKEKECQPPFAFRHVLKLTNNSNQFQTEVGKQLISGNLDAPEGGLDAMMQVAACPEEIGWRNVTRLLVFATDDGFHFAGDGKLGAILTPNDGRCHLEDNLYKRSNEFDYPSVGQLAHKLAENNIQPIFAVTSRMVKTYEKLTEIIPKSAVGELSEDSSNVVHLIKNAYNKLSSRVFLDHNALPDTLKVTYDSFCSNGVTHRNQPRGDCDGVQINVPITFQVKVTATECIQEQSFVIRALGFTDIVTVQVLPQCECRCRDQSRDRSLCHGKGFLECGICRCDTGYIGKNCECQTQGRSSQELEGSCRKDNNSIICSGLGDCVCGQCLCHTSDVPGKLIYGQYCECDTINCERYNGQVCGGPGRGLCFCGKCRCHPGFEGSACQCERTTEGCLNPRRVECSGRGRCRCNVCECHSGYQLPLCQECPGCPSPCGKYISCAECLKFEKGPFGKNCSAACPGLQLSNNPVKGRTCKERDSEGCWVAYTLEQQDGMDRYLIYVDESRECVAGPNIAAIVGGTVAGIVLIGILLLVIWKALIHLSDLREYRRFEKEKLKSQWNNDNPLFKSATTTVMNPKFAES

## CC(C)Oc1c(C(=O)Nc2nnn[nH]2)sc2c1CS(=O)(=O)CC2 [Example 6, 3-Isopropoxy-5,5-dioxo-6,7-dihydro-4H-thieno[3,2-c]thiopyran-2-carboxylic acid (1H-tetrazol-5-yl) amide]
  inhibition at 33 µM: 38%

## CC(C)Oc1c(C(=O)Nc2nnn[nH]2)sc2c1CCC2 [Example 2, 3-Isopropoxy-5,6-dihydro-4H-cyclopenta[b]thiophene-2-carboxylic acid (1H-tetrazol-5-yl)-amide]
  inhibition at 33 µM: 27%
